Results reported in US11066414B2, “Cot modulators and methods of use thereof” (Gilead Sciences, Inc., priority 2015, dated 2021).
Read-outs that look alike come from different tables or passages of the source.

Key:
TNFα = experiment: Cot Monocyte TNFα Cell Based Assay
Human Cot = Human Cot (Homo sapiens (Human), UniProt P41279); experiment: High Throughput Cot Biochemical Assay
[1] = Homo sapiens, Monocyte, read-out: EC50 TNF, LPS-stimulated human monocytes, TNFα TR-FRET
[2] = IC50 HTRF, Cot HTRF (TR-FRET KinEASE) biochemical assay, 400 μM ATP
[3] = Homo sapiens, Monocyte, read-out: EC50 TNF, LPS-stimulated human monocytes, TNFα
[4] = IC50 HTRF, Cot HTRF (TR-FRET) biochemical assay
[5] = read-out: EC50 TNF, LPS-stimulated human monocytes, TNFα
[6] = read-out: IC50 HTRF, Cot HTRF (TR-FRET) biochemical assay

Sequence of Human Cot (P41279 30-397): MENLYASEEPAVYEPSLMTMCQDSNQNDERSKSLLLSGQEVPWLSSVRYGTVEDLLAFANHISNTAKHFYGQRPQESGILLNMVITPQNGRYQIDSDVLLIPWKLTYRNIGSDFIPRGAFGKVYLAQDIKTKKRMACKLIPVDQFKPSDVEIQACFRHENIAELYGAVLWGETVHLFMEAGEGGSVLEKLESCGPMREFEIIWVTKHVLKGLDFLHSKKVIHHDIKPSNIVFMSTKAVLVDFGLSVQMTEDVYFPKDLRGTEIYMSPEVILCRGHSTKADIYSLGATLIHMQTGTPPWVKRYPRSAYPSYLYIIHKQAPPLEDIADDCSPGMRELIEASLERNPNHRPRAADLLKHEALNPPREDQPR

EC50 (TNFα; [3]) [nM] | IC50 (Human Cot; [4]) [nM] | Compound | also measured
 |  | CC(C)(C)CNc1c(C#N)cnc2c(Cl)cc(N[C@H](c3cn(C4(C(F)(F)F)CC4)nn3)c3cccc4cnc(Cl)cc34)cc12 [Example 915, (S)-8-chloro-6-(((3-chloroisoquinolin-5-yl)(1-(1-(trifluoromethyl)cyclopropyl)-1H-1,2,3-triazol-4-yl)methyl)amino)-4-(neopentylamino)quinoline-3-carbonitrile] | EC50 (TNFα; [1]): 324 nM; IC50 (Human Cot; [2]): 44 nM
73 | 4 | CC1(C)COCCC1Nc1c(C#N)cnc2c(C#N)cc(N[C@H](c3cn(C4(C(F)(F)F)CC4)nn3)c3cccc4ncsc34)cc12 (stereo partly drawn) [Example 452, 6-(((S)-benzo[d]thiazol-7-yl(1-(1-(trifluoromethyl)cyclopropyl)-1H-1,2,3-triazol-4-yl)methyl)amino)-4-((3,3-dimethyltetrahydro-2H-pyran-4-yl)amino)quinoline-3,8-dicarbonitrile] | 
821 | 49 | [2H][C@](Nc1cc(OC)c2ncc(C#N)c(NCC(C)(C)C)c2c1)(c1ccc(F)nc1)c1cn(C2CC2)nn1 [Example 98, (S)-6-(((1-cyclopropyl-1H-1,2,3-triazol-4-yl)(6-fluoropyridin-3-yl)methyl-d)amino)-8-methoxy-4-(neopentylamino)quinoline-3-carbonitrile] | 
27 | 1 | Cc1nc(F)ccc1[C@H](Nc1cc(C#N)c2ncc(C#N)c(NCC(C)(C)C)c2c1)c1cn([C@@H](C)CF)nn1 [Example 623, 6-(((S)-(6-fluoro-2-methylpyridin-3-yl)(1-((S)-1-fluoropropan-2-yl)-1H-1,2,3-triazol-4-yl)methyl)amino)-4-(neopentylamino)quinoline-3,8-dicarbonitrile] | 
858 | 58 | Cc1nc(F)ccc1[C@H](Nc1cc(C#N)c2ncc(C#N)c(NCC3(C(F)F)CC3)c2c1)c1cn(C2(C(F)(F)F)CC2)nn1 [Example 638, (S)-4-(((1-(difluoromethyl)-cyclopropyl)methyl)amino)-6-(((6-fluoro-2-methylpyridin-3-yl)(1-(1-(trifluoromethyl)cyclopropyl)-1H-1,2,3-triazol-4-yl)methyl)amino)quinoline-3,8-dicarbonitrile] | 
166 | 9 | Cc1nc(Cl)ccc1[C@H](Nc1cc(Cl)c2ncc(C#N)c(Nc3ccc(F)c(Cl)c3)c2c1)c1cn(C(C)C)nn1 [Example 294, (S)-8-chloro-6-(((6-chloro-2-methylpyridin-3-yl)(1-isopropyl-1H-1,2,3-triazol-4-yl)methyl)amino)-4-((3-chloro-4-fluorophenyl)amino)quinoline-3-carbonitrile] | 
> 1000 | 1160 | [2H]C(Nc1cc(Cl)c2ncc(C#N)c(N[C@@H](CCC#N)c3ccccc3)c2c1)(c1ccc(F)nc1)c1cn(C2CC2)nn1 (stereo partly drawn) [Example 88, 8-chloro-4-(((S)-3-cyano-1-phenylpropyl)amino)-6-(((1-cyclopropyl-1H-1,2,3-triazol-4-yl)(6-fluoropyridin-3-yl)methyl-d)amino)quinoline-3-carbonitrile] | 
 |  | Cc1nc(F)ccc1[C@H](Nc1cc(Cl)c2ncc(C#N)c(N[C@H]3[C@@H]4COC[C@@H]43)c2c1)c1cn(C2(C(F)(F)F)CC2)nn1 [Example 608, 4-(((lR,5S,6r)-3-oxabicyclo[3.1.0]hexan-6-yl)amino)-8-chloro-6-(((S)-(6-fluoro-2-methylpyridin-3-yl)(1-(1-(trifluoromethyl)cyclo-propyl)-1H-1,2,3-triazol-4-yl)methyl)amino)-quinoline-3-carbonitrile] | EC50 (TNFα; [5]): 314 nM; IC50 (Human Cot; [6]): 42 nM
 |  | 6-(((S)-(1-((1R,2R)-2- (difluoromethyl)cyclopropyl)- 1H-1,2,3-triazol-4-yl)(6-fluoro- 2-methylpyridin- 3-yl)methyl)amino)-4- [Example 834] | EC50 (TNFα; read-out: EC50 TNF, LPS-stimulated human monocytes, TNFα TR-FRET): 68 nM; IC50 (Human Cot; read-out: IC50 HTRF, Cot HTRF (TR-FRET KinEASE) biochemical assay, 400 μM ATP): 5 nM
209 | 18 | Cn1ccc2c([C@H](Nc3cc(Cl)c4ncc(C#N)c(NCC(C)(C)C)c4c3)c3cn(C4(C(F)F)CC4)nn3)ccnc21 [Example 767, (S)-8-chloro-6-(((1-(1-(difluoromethyl)cyclopropyl)-1H-1,2,3-triazol-4-yl)(1-methyl-1H-pyrrolo[2,3-b]pyridin-4-yl)methyl)amino)-4-(neopentylamino)quinoline-3-carbonitrile] | 
1000 | 102 | Cc1scnc1[C@H](Nc1cc(Cl)c2ncc(C#N)c(NCC(C)(C)C)c2c1)c1cn(C2(C(F)F)CC2)nn1 [Example 620, (S)-8-chloro-6-(((1-(1-(difluoromethyl)cyclo-propyl)-1H-1,2,3-triazol-4-yl)(5-methylthiazol-4-yl)methyl)amino)-4-(neopentylamino)quinoline-3-carbonitrile] | 
79 | 4 | CC(C)(C)CNc1c(C#N)cnc2c(C#N)cc(N[C@H](c3cn(C4(C(F)(F)F)CC4)nn3)c3cccn4nccc34)cc12 [Example 572, (S)-4-(neopentylamino)-6-((pyrazolo[1,5-a]pyridin-4-yl(1-(1-(trifluoromethyl)cyclo-propyl)-1H-1,2,3-triazol-4-yl)methyl)amino)quinoline-3,8-dicarbonitrile] | 
250 | 21 | Cc1ccc([C@H](Nc2cc(C#N)c3ncc(C#N)c(NCC(C)(C)C)c3c2)c2cn(C3(C(F)(F)F)CC3)nn2)c(F)n1 [Example 690, (S)-6-(((2-fluoro-6-methylpyridin-3-yl)(1-(1-(trifluoromethyl)cyclopropyl)-1H-1,2,3-triazol-4-yl)methyl)amino)-4-(neopentylamino)quinoline-3,8-dicarbonitrile] | 
506 | 4 | CC(C)(C)CNc1c(C#N)cnc2c(Cl)cc(N[C@@H](c3cccnc3)c3c[nH]nn3)cc12 [Example 167, (S)-8-chloro-4-(neopentylamino)-6-((pyridin-3-yl(1H-1,2,3-triazol-4-yl)methyl)amino)quinoline-3-carbonitrile] | 
198 | 5 | CCc1nc(F)ccc1[C@H](Nc1cc(C#N)c2ncc(C#N)c(NCC(C)(C)C)c2c1)c1cn(C2(C(F)(F)F)CC2)nn1 [Example 598, (S)-6-(((2-ethyl-6-fluoropyridin-3-yl)(1-(1-(trifluoromethyl)cyclopropyl)-1H-1,2,3-triazol-4-yl)methyl)amino)-4-(neopentylamino)-quinoline-3,8-dicarbonitrile] | 
184 | 4 | CC(C)(C)N1CCC(n2cc([C@@H](Nc3cc(Cl)c4ncc(C#N)c(Nc5ccc(F)c(Cl)c5)c4c3)c3cscn3)nn2)CC1 [Example 353, (S)-6-(((1-(1-(tert-butyl)piperidin-4-yl)-1H-1,2,3-triazol-4-yl)(thiazol-4-yl)methyl)amino)-8-chloro-4-((3-chloro-4-fluorophenyl)amino)-quinoline-3-carbonitrile] | 
650 | 20 | CC(C)(C)N1CCC(n2cc([C@@H](Nc3cc(Cl)c4ncc(C#N)c(Nc5ccc(F)c(Cl)c5)c4c3)c3ccc(Cl)nc3Cl)nn2)CC1 [Example 325, (S)-6-(((1-(1-(tert-butyl)piperidin-4-yl)-1H-1,2,3-triazol-4-yl)(2,6-dichloropyridin-3-yl)methyl)amino)-8-chloro-4-((3-chloro-4-fluorophenyl)-amino)quinoline-3-carbonitrile] | 
 |  | CC(C)(C)CNc1c(C#N)cnc2c(C#N)cc(N[C@H](c3cn(C45CC(C4)C5)nn3)c3cccc4c(=O)[nH]ccc34)cc12 [Example 888, (S)-6-(((1-(bicyclo[1.1.1]pentan-1-yl)-1H-1,2,3-triazol-4-yl)(1-oxo-1,2-dihydroisoquinolin-5-yl)methyl)amino)-4-(neopentylamino)quinoline-3,8-dicarbonitrile] | EC50 (TNFα; [1]): 165 nM; IC50 (Human Cot; [2]): 2 nM
86 | 4 | [2H]c1c([C@@H](Nc2cc(C#N)c3ncc(C#N)c(NCC(C)(C)C)c3c2)c2ccc(F)nc2C)nnn1C1(C(F)(F)F)CC1 [Example 574, (S)-6-(((6-fluoro-2-methylpyridin-3-yl)(1-(1-(trifluoromethyl)cyclopropyl)-1H-1,2,3-triazol-4-yl-5-d)methyl)amino)-4-(neopentylamino)quinoline-3,8-dicarbonitrile] | 
335 | 6 | Cc1nc(F)ccc1[C@H](Nc1cc(Cl)c2ncc(C#N)c(NCC(C)(C)C)c2c1)c1nnn(C2CC2)c1Cl [Example 662, (S)-8-chloro-6-(((5-chloro-1-cyclopropyl-1H-1,2,3-triazol-4-yl)(6-fluoro-2-methylpyridin-3-yl)methyl)amino)-4-(neopentylamino)quinoline-3-carbonitrile] | 
194 | 16 | [2H][C@](Nc1cc(Cl)c2ncc(C#N)c(Nc3c(F)ccc(Cl)c3F)c2c1)(c1ccc(F)nc1)c1cn(C2CC2)nn1 [Example 127, (S)-8-chloro-4-((3-chloro-2,6-difluorophenyl)amino)-6-(((1-cyclopropyl-1H-1,2,3-triazol-4-yl)(6-fluoropyridin-3-yl)methyl-d)amino)quinoline-3-carbonitrile] | 
32 | 2 | CC(C)(C)CNc1c(C#N)cnc2c(C#N)cc(N[C@H](c3cn(C4(C)CC4)nn3)c3cccc4ncccc34)cc12 [Example 578, (S)-6-(((1-(1-methylcyclopropyl)-1H-1,2,3-triazol-4-yl)(quinolin-5-yl)methyl)amino)-4-(neopentylamino)quinoline-3,8-dicarbonitrile] | 
 |  | CC(C)n1cc([C@@H](Nc2cc(Cl)c3ncc(C#N)c(Nc4ccc(F)c(Cl)c4)c3c2)c2ccc3ncsc3c2)nn1 [Example 61, (S)-6-((benzo[d]thiazol-6-yl(1-isopropyl-1H-1,2,3-triazol-4-yl)nielhyl)amino)-8-chloro-4-((3-chloro-4-fluorophenyl)amino)quinoline-3-carbonitrile] | EC50 (TNFα; [5]): 238 nM; IC50 (Human Cot; [6]): 11 nM
